This is an account of results in patent US7301005B2, “Immunomodulatory peptides derived from heat shock proteins and uses thereof” (priority 2000, dated 2007).

Marks after values point to notes of the source that are not given here. Bounds are passed on as bounds.

What all share (assay type): cell-based, human
For assay [1], the system named is SFMC from patients with oJIA. The experiment in a line: Cytokine production in culture supernatants of SFMC incubated with dnaJ and restimulated with autologous feeder cells plus peptide. The settings on record: for IFNγ / IL-6 / TNFα / IL-4 / IL-10: mean+SD; for production of IL-10 in patients with extended oligoarthritis: three patients with extended oligoarthritis at sampling; for IL-10 production detectable or not: culture supernatants of SFMC. The text has this: Results are expressed as pg/ml (mean+SD).
Cytokine production to the same peptides was examined in culture supernatants of SFMC from patients with oJIA. […] SFMC from only one of 21 patients with oJIA produced detectable levels of the anti-inflammatory cytokine IL-10, and none produced detectable levels of IL-4.
(§1) In order to evaluate whether human homologous peptides could be the target of cross-recognition leading to self reactivity, human peptides derived from regions of HSJ1, HDJ1, or HDJ2 having sequence homology with E. coli dnaJ were studied. SFMC of 14 patients with oJIA presenting a SI to the recombinant E. coli hsp dnaJ greater than 3 were restimulated for 96 hr with autologous cells in presence or absence of human peptide 2, 3, or 5, which are homologs of bacterial peptide 4; human peptide 20, 21, or 23, which are homologs of bacterial peptide 22; or human peptide 164, 167, or 176, which are homologs of bacterial peptide 174. SFMC proliferative responses, pro-inflammatory cytokine production, and anti-inflammatory IL-4 levels were overall similar between the peptides derived from human dnaJ proteins and the homologous bacterial peptides.
Results are expressed as SI or pg/ml (mean+SD).

For assay [2], the system named is SFMC from patients with oJIA. The experiment in a line: Proliferative response of SFMC incubated with dnaJ and restimulated with autologous feeder cells plus peptide. The note with it: for SI: Table 3, dnaJ 72 hr then restimulated with peptide, mean+SD. The protocol:
Results, expressed as stimulation index (SI), are shown as mean+SD.
In order to identify possible relevant epitopes on the bacterial dnaJ protein, PBMC and SFMC of patients with oJIA were incubated for 72 hr with dnaJ, and restimulated with autologous feeder cells the in presence or absence of selected E. coli derived MHC class II binder peptides for 96 hr.
as §1
Results are expressed as SI or pg/ml (mean+SD). […]
To explore the possible correlation of clinical features with the development of peptide-induced immune modulation, oJIA patients were grouped according to the course of disease, including those with persistent disease (n=16), and those with extended disease (n=15) o-JIA. (FIG. 25).

The subject of assay [3] is peripheral blood mononuclear cells (PBMC). The experiment in a line: Proliferative response (stimulation index) of PBMC stimulated with antigen for 96 hr. The note with it: PBMC.
The subject of assay [4] is synovial fluid mononuclear cells (SFMC) from patients with oJIA. Description: Proliferative response (stimulation index) of SFMC stimulated with antigen for 96 hr. The note with it: SFMC.
The mark [5] stands for this setting: Table 3, dnaJ 72 hr then restimulated with peptide.
Where [6] appears, read: Table 1, dnaJ 72 hr then restimulated with peptide 72 hr.

With “ASYYEILDVPRSASA (listed as Homo sapiens) [Peptide 2, human HSJ1 peptide, homologue of bacterial dnaJ peptide 4]”, in assay [1] (setting [5]), the IFNγ was 51.3 + 72.4 pg/ml, the IL-6 is 41.7 + 43.8 pg/ml and the TNFα is recorded as 23.2 + 26.8 pg/ml. Besides, in assay [2], the SI is 5.9 + 5.7.

Turning to “DLQLAMAYSLSEMEA (listed as Homo sapiens) [Peptide 254, non-homologous human peptide (HSJ1)]”, the “production of IL-10 in patients with extended oligoarthritis” value (shortened to “production of IL-10 in patients”) in assay [1] was “reduced production of IL-10”.

Take “EDLFMCMDIQLVEAL (listed as Homo sapiens) [Peptide 256, non-homologous human peptide (HDJ2)]”: the “production of IL-10 in patients” value in assay [1] is reported as “reduced production of IL-10”.

On to “FRSVSTSTTFVQGRR (listed as Homo sapiens) [Peptide 164, human HSJ1 peptide, homologue of bacterial dnaJ peptide 174]”, for which, in assay [1] (setting [5]), the IFNγ was 52.5 + 85.2 pg/ml, the IL-6 is 27.3 + 31.3 pg/ml and the TNFα was 13.5 + 18.9 pg/ml. Moreover, the SI in assay [2] was 4.2 + 4.0.

Regarding “GDLYVQVQVKQHPIF (listed as Escherichia coli) [Peptide 242, bacterial (E. coli) dnaJ peptide]”, in assay [1] (setting [6]), the IFNγ was determined as 41.2 ± 48.8 pg/mL, the IL-4 is less than 0.39 pg/mL, the IL-6 is 34.1 ± 41.7 pg/mL and the IL-10 is 5.3 ± 6.6 pg/mL. In assay [1] (setting [6]), the TNFα was determined as 14.2 ± 29.2 pg/mL.

In the case of “GRRITTRRIMENGQE (listed as Homo sapiens) [Peptide 176, human HSJ1 peptide, homologue of bacterial dnaJ peptide 174]”, in assay [1] (setting [5]), the IFNγ is recorded as 45.6 + 68.3 pg/ml, the IL-6 is listed as 21.2 + 25.2 pg/ml and the TNFα is given as 8.9 + 10.3 pg/ml. In assay [2], the SI is 4.3 + 2.7.

For the substance “KDYYQTLGLARGASD (listed as Homo sapiens) [Peptide 3, human HDJ1 peptide, homologue of bacterial dnaJ peptide 4]”, in assay [1] (setting [5]), the IFNγ was 57.5 + 85.7 pg/ml, the IL-6 is 114.0 + 126 pg/ml and the TNFα is recorded as 10.3 + 9.9 pg/ml. In addition, the SI in assay [2] is on record as 8.0 + 7.5.

As for “KKAYRKLALKYHPDK (listed as Homo sapiens) [Peptide 23, human HDJ2 peptide, homologue of bacterial dnaJ peptide 22]”, in assay [1] (setting [5]), the IFNγ is 38.2 + 75 pg/ml, the IL-6 was 33.3 + 32.7 pg/ml and the TNFα is reported as 7.7 + 7.6 pg/ml. The “IL-10 production detectable or not” value in assay [1] was “did not induce detectable levels of IL-10”. For the same substance, the SI in assay [2] is recorded as 4.7 + 4.0.

On to “KKAYRRKALQWHPDK (listed as Homo sapiens) [Peptide 20, human HSJ1 peptide, homologue of bacterial dnaJ peptide 22]”, for which, in assay [1] (setting [5]), the IFNγ is on record as 25.3 + 47.4 pg/ml, the IL-6 is recorded as 33.0 + 34.0 pg/ml and the TNFα was 11.8 + 11.2 pg/ml. Moreover, the “IL-10 production detectable or not” value in assay [1] is “did not induce detectable levels of IL-10”. The SI in assay [2] was 4.7 + 4.7.

In the case of “KRAYRRQALRYHPDK (listed as Homo sapiens) [Peptide 21, human HDJ1 peptide, homologue of bacterial dnaJ peptide 22]”, in assay [1] (setting [5]), the IFNγ is recorded as 30.8 + 56.4 pg/ml, the IL-6 is recorded as 33.5 + 43.8 pg/ml and the TNFα was 26.6 + 39.3 pg/ml. The “IL-10 production detectable or not” value in assay [1] was “did not induce detectable levels of IL-10”. Besides, the SI in assay [2] was 4.6 + 4.2.

As for “PGMVQQIQSVCMECQ (listed as Homo sapiens) [Peptide 167, human HDJ2 peptide, homologue of bacterial dnaJ peptide 174]”, in assay [1] (setting [5]), the IFNγ is on record as 38.3 + 61.2 pg/ml, the IL-6 is on record as 23.0 + 22.3 pg/ml and the TNFα was 7.3 + 7.3 pg/ml. The SI in assay [2] was 3.9 + 3.1.

Take “PINFAMAALGGEIEV (listed as Escherichia coli) [Peptide 268, bacterial (E. coli) dnaJ peptide]”: in assay [1] (setting [6]), the IFNγ was determined as 34.7 ± 51.2 pg/mL, the IL-4 is less than 0.39 pg/mL, the IL-6 was 45 ± 58.4 pg/mL and the IL-10 is less than 3.9 pg/mL. Further, the TNFα in assay [1] (setting [6]) amounted to 17.2 ± 30.1 pg/mL.

As for “QAYEVLSDAKKRELYD (listed as Homo sapiens) [Peptide 50, non-homologous human peptide (HDJ2)]”, the “production of IL-10 in patients” value in assay [1] is “reduced production of IL-10”.

Take “QDYYEILGVSKTAEE (listed as Escherichia coli) [Peptide 4, bacterial (E. coli) dnaJ peptide]”: in assay [1] (setting [6]), the IFNγ was found to be 38.5 ± 47.7 pg/mL, the IL-4 was less than 0.39 pg/mL, the IL-6 came out at 49.8 ± 54.0 pg/mL and the IL-10 stood at 5.4 ± 6.9 pg/mL. For the same substance, the TNFα in assay [1] (setting [6]) worked out at 9.8 ± 21.2 pg/mL. In addition, in assay [1] (setting [5]), the IFNγ was 30.8 + 52.4 pg/ml, the IL-6 was 60.2 + 60.3 pg/ml and the TNFα is on record as 6.0 + 4.5 pg/ml. In addition, the SI in assay [2] is 4.1 + 3.33.

With “QGFFAVQQTCPHCQG (listed as Escherichia coli) [Peptide 174, bacterial (E. coli) dnaJ peptide]”, in assay [1] (setting [6]), the IFNγ came to 29.8 ± 44.6 pg/mL, the IL-4 was less than 0.39 pg/mL, the IL-6 is 47.3 ± 61.2 pg/mL and the IL-10 stood at 4.2 ± 1.9 pg/mL. Moreover, the TNFα in assay [1] (setting [6]) is 16.1 ± 31.5 pg/mL. In addition, in assay [1] (setting [5]), the IFNγ was 31.4 + 53.1 pg/ml, the IL-6 was 56.4 + 70 pg/ml and the TNFα is recorded as 16.1 + 30.9 pg/ml. Besides, in assay [2], the SI is 5.9 + 7.5.

With “QKRAAYDQYGHAAFEQ (listed as Escherichia coli) [Peptide 61, bacterial (E. coli) dnaJ peptide]”, in assay [1] (setting [6]), the IFNγ stood at 31 ± 45.7 pg/mL, the IL-4 is less than 0.39 pg/mL, the IL-6 stood at 47.6 ± 70.5 pg/mL and the IL-10 was less than 3.9 pg/mL. In assay [1] (setting [6]), the TNFα came out at 22.6 ± 35.3 pg/mL.

Consider “RKAYKRLAMKYHPDR (listed as Escherichia coli) [Peptide 22, bacterial (E. coli) dnaJ peptide]”, for which, in assay [1] (setting [6]), the IFNγ turned out to be 27 ± 38.0 pg/mL, the IL-4 is less than 0.39 pg/mL, the IL-6 stood at 45.7 ± 57.7 pg/mL and the IL-10 came to 4.4 ± 2.7 pg/mL. The TNFα in assay [1] (setting [6]) came out at 14.1 ± 26.8 pg/mL. Moreover, in assay [1] (setting [5]), the IFNγ is 20.1 + 33.5 pg/ml, the IL-6 was 54.3 + 69.0 pg/ml and the TNFα is 10.5 + 23.1 pg/ml. For the same substance, the “IL-10 production detectable or not” value in assay [1] is on record as “did not induce detectable levels of IL-10”. The SI in assay [2] is recorded as 4.7 + 4.0.

Consider “RTIVITSHPGQIVKH (listed as Homo sapiens) [Peptide 283, non-homologous human peptide (HDJ2)]”, for which, in assay [1], the “production of IL-10 in patients” value was “reduced production of IL-10”.

Regarding “SKTLSVKIPGAVDTG (listed as Escherichia coli) [Peptide 209, bacterial (E. coli) dnaJ peptide]”, in assay [1] (setting [6]), the IFNγ is 41.3 ± 46.9 pg/mL, the IL-4 is less than 0.39 pg/mL, the IL-6 was 56.6 ± 65.9 pg/mL and the IL-10 came to 6.2 ± 5.8 pg/mL. For the same substance, the TNFα in assay [1] (setting [6]) stood at 15.3 ± 29.2 pg/mL.

In the case of “TTYYDVLGVKPNATQ (listed as Homo sapiens) [Peptide 5, human HDJ2 peptide, homologue of bacterial dnaJ peptide 4]”, in assay [1] (setting [5]), the IFNγ is listed as 69.5 + 105.2@ pg/ml, the IL-6 is on record as 60.0 + 67.2 pg/ml and the TNFα is 18.9 + 16.9 pg/ml. The “IFNγ production compared with bacterial homolog” value in assay [1] (p<0.05) is reported as “significantly greater”. In assay [2], the SI is listed as 8.2 + 7.3*. In assay [2] (p<0.03), the “proliferative response compared with bacterial homolog” value is “significantly greater”.

Take YCEVPTNFAMAALGG [Peptide 264]: in assay [1] (setting [6]), the IFNγ came to 44.9 ± 55.8 pg/mL, the IL-4 was less than 0.39 pg/mL, the IL-6 was 47.4 ± 61.2 pg/mL and the IL-10 was less than 3.9 pg/mL. In assay [1] (setting [6]), the TNFα came to 14.0 ± 29.3 pg/mL.

As to tetanus toxoid [TT, reference compound], the entries for the “median SI” value in assay [3] and in assay [4] were 12.3 and 6.0, respectively.
